Consider one molecule from publication PMC11508633, “In Silico Discovery of a Novel PI3Kδ Inhibitor Incorporating 3,5,7-Trihydroxychroman-4-one Targeting Diffuse Large B-Cell Lymphoma” (International Journal of Molecular Sciences, 2024).

This assay has as its target T1, PI3Kδ (Homo sapiens, UniProt O00329).
T1 construct: gene PIK3CD; PI3Kδ (p120δ/p85α); with p85α
The assay can be described thus: ADP-Glo kinase assay (PIP2:PS substrate, […] ATP). In kind it is biochemical. Background: In ADP-Glo the light output rises with the ADP produced.

T1 sequence (O00329 whole entry): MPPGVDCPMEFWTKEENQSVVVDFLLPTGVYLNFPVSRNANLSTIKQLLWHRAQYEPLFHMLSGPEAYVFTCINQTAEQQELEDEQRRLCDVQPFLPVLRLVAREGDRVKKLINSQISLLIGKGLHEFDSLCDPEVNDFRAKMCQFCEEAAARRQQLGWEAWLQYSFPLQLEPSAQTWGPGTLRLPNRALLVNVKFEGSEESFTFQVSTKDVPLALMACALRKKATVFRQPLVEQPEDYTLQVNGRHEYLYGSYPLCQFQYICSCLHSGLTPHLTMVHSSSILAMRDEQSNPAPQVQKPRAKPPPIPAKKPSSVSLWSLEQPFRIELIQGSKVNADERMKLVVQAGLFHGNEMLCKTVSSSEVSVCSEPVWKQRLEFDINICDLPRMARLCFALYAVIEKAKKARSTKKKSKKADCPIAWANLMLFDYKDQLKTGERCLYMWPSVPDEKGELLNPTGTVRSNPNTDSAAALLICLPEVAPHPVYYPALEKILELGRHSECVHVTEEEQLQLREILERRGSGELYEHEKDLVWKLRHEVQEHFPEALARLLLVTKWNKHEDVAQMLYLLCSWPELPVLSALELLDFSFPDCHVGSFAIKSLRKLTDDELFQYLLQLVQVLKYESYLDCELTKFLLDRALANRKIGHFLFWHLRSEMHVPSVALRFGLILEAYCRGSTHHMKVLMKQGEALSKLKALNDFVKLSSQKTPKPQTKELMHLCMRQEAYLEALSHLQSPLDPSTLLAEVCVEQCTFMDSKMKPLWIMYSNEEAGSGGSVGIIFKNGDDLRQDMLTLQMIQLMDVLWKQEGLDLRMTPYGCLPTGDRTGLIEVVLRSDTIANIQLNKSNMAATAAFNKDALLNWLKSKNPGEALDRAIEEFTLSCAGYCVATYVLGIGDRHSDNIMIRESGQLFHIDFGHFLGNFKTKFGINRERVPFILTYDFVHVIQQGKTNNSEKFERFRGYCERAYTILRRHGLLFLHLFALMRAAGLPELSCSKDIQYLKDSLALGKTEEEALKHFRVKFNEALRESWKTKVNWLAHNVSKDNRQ
T1 sequence (P27986 2-724 partner): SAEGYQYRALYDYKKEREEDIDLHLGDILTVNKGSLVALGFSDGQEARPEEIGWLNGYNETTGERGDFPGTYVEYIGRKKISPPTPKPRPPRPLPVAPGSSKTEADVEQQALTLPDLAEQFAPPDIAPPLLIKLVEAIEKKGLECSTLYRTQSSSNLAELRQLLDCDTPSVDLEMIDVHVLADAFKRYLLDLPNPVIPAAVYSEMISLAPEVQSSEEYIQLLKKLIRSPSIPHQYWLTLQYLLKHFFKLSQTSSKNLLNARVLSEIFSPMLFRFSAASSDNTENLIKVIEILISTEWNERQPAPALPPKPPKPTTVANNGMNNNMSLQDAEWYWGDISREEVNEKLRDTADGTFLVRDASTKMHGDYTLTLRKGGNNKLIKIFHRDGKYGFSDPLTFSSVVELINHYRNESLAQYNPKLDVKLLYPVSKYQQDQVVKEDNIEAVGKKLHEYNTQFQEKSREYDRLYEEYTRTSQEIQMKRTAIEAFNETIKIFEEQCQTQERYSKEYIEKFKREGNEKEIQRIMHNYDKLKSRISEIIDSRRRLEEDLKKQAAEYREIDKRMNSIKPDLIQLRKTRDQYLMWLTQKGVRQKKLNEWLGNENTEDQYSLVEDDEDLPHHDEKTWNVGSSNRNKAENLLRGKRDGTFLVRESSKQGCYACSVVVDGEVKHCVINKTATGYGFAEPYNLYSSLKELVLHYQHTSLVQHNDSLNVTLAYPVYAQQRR

`COc1cc(C2Oc3cc([C@H]4Oc5cc(O)cc(O)c5C(=O)[C@@H]4O)ccc3OC2CO)ccc1O` (stereo partly shown) [Silibinin] returned a 50% inhibitory concentration (IC50) of 288 µM.

Broadly, the IC50 is the point on the concentration scale where inhibition reaches its midpoint. A lower IC50 goes with greater potency in that assay.
